pIC50: −log10 of the molar value.
Assays:
Format in all cases: biochemical
myeloperoxidase (MPO) [1] = target: T1, myeloperoxidase (MPO) (Homo sapiens, UniProt P05164); assay: MPO peroxidation assay (Amplex Red assay); conditions: MPO peroxidation, potency range class; read-out: Amplex Red IC50
T1 sequence (P05164 49-745): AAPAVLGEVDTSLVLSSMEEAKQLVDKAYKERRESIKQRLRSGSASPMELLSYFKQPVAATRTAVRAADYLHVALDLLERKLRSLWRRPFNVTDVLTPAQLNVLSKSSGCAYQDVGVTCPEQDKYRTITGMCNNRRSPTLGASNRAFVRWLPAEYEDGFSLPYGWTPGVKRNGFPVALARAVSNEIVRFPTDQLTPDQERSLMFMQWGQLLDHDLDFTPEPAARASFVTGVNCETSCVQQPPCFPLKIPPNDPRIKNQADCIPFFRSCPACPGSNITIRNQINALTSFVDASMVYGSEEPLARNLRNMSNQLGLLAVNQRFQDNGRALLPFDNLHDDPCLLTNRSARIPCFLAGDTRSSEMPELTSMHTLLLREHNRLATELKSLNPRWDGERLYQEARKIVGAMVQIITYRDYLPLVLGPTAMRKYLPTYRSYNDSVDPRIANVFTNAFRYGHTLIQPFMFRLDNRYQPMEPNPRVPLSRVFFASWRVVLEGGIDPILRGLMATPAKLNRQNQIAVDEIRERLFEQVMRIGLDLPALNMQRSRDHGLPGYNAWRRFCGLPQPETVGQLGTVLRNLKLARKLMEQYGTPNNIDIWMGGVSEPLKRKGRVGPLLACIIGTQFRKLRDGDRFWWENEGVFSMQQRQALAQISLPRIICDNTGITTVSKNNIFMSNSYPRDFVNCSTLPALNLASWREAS
Outline: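 Peroxidase turnover of Amplex Red to fluorescent resorufin (Ex 535/Em 590 nm) was followed for 15 min in 100 mM KPi, pH 7.4, after 10 min room-temperature preincubation of compound with 200 pM enzyme plus 40 nM H2O2. The substrate mix contained 200 μM Amplex Red and 10 mM H2O2. IC50s came from linear-phase rates (180–540 s) fitted with a Hill equation.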

[2] = target: T2, EPX (eosinophil peroxidase) (Homo sapiens, UniProt P11678); assay: EPX bromination assay
T2 construct: purchased Lee Biosolutions 342-60
T2 sequence (P11678 140-715): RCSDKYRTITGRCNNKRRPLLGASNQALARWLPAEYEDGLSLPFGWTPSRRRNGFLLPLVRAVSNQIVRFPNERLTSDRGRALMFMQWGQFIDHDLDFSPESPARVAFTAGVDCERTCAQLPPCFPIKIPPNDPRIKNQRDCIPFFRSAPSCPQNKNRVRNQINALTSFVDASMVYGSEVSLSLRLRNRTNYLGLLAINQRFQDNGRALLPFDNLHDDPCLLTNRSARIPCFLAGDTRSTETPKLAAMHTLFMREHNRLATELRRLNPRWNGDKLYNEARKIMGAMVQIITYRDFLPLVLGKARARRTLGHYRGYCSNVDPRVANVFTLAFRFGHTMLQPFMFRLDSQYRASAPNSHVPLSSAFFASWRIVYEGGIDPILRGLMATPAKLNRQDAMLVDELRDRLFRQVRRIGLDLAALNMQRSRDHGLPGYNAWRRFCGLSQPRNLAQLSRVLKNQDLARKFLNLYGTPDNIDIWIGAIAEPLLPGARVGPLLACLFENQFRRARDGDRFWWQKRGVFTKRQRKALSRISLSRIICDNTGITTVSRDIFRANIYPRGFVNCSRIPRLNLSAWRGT
Protocol: (§1) [formula] where A=minimal Y value (activity level of inhibited sample), B=maximal Y value (activity level of uninhibited sample), C=Log IC50, D=Hill Slope, x=concentration of inhibitor. EPX Bromination Assay
EPX bromination activity was measured in 100 mM KPi (pH 7.4) by monitoring the H2O2 catalyzed formation of 3-bromo tyrosine from tyrosine and potassium bromide. A 50 μl mixture of 0.6 μM EPX (Lee Biosolutions Cat#342-60) was added to 100 nL inhibitor in 100% DMSO in a 384 well REMP plate. Enzyme and compound were preincubated for ten minutes at room temperature.
After the ten minute preincubation of enzyme and inhibitor, 25 μL of a mixture containing 400 μM tyrosine and 1200 μM potassium bromide was added to the plate containing enzyme and inhibitor, followed by the addition of 25 μl of 20 μM H2O2. The reaction was allowed to proceed for 15 minutes, at which time it was quenched with 10 μL of 20% TCA. The final concentrations of all components were 0.3 μM EPX, 100 μM tyrosine, […], 5 μM H2O2, 0.1% DMSO, 2.0% TCA.
IC50 values were determined by determining the peak areas of 3-bromotyrosine present at the end of the 15 minute reaction and fitting the data to:
[formula] where A=minimal Y value (activity level of inhibited sample), B=maximal Y value (activity level of uninhibited sample), C=Log IC50, D=Hill Slope, x=concentration of inhibitor.
Reversed-phase analysis was performed on a Waters Acquity Ultra Performance LC system using an Acquity UPLC BEH C18 […], 2.1×50 mm analytical column. The column was maintained at 60° C. Samples were eluted using a gradient of 0%-100% B over 2.5 minutes, followed by equilibration with 100% A for 1 minute where A consisted of 0.1% TFA and B consisted of 90% MeOH/0.1% TFA at a flow rate of 0.6 mL/min. The retention time of 3-bromo tyrosine was 1.22 min.

myeloperoxidase (MPO) [3] = target: T1, myeloperoxidase (MPO); assay: MPO chlorination assay (APF assay); conditions: MPO chlorination, potency range class; read-out: APF IC50
Protocol: [formula] where A=minimal Y value (activity level of inhibited sample), B=maximal Y value (activity level of uninhibited sample), C=Log IC50, D=Hill Slope, x=concentration of inhibitor. MPO Chlorination Assay (APF Assay)
MPO chlorination activity was measured in 100 mM KPi (pH 7.4) by utilizing the non-fluorescent reagent Aminophenyl fluorescein (APF, Invitrogen catalog #A36003). APF is cleaved by (—OCl) to yield the fluorescent compound fluorescein. Reactions were carried out in 50 μL total volume by adding a 25 μL mixture of 200 pM myeloperoxidase and 120 mM NaCl to 100 nL inhibitor in 100% DMSO in a 384 well, non-binding surface clear bottom plate (CORNING® #3655). Enzyme, inhibitor, and chloride were preincubated for ten minutes at room temperature.
After the ten minute preincubation, 25 μL of an APF mixture containing […], 120 mM NaCl and 10 μM H2O2 was added to the plate using the internal dispensing system of a Hammatsu FDSS 6000. Kinetic determinations were carried out immediately on the FDSS 6000 (3 minute kinetic read, 1 read every second, ex: 485 nm, em: 535 nm). IC50 values for inhibitors were calculated by taking the slope of the linear portion of the kinetic measurement (20 seconds to ˜80-120 secs).
IC50 values were calculated by determining the slope of the linear portion of the kinetic trace ([…]), and using that calculated slope to determine % inhibition occurring at each concentration of inhibitor using the following equation:
as §1

Row | Structure (SMILES) | pIC50 (myeloperoxidase (MPO) [1]) | pIC50 [2] | pIC50 (myeloperoxidase (MPO) [3])
1 | Nc1cc(OCc2c(F)cccc2F)c2nn[nH]c2n1 [Example 54, 7-(2,6-Difluorobenzyloxy)-3H-[1,2,3]triazolo[4,5-b]pyridin-5-amine] | 7.00 to 9.00 | 8.00 | –
2 | Nc1cc(OCc2cccc(-c3ncccn3)c2)c2nn[nH]c2n1 [Example 8, 7-(3-(Pyrimidin-2-yl)benzyloxy)-3H-[1,2,3]triazolo[4,5-b]pyridin-5-amine] | 7.00 to 9.00 | 7.40 | –
3 | Nc1cc(OCc2cc(Cl)ccc2OC2CCCC2)c2nn[nH]c2n1 [Example 43, 7-(5-Chloro-2-(cyclopentyloxy)benzyloxy)-3H-[1,2,3]triazolo[4,5-b]pyridin-5-amine] | 7.00 to 9.00 | – | 6.00 to 7.00
4 | Cc1nccn1-c1ccc(COc2cc(N)nc3[nH]nnc23)c(C#N)c1 [Example 277, 2-(((5-amino-3H-[1,2,3]triazolo[4,5-b]pyridin-7-yl)oxy)methyl)-5-(2-methyl-1H-imidazol-1-yl)benzonitrile] | 6.00 to 7.00 | – | 5.00 to 6.00

The next lines start with the values.

Row | pIC50 (myeloperoxidase (MPO) [1]) | pIC50 [2] | pIC50 (myeloperoxidase (MPO) [3]) | Structure (SMILES)
5 | 7.00 to 9.00 | 8.00 | – | Nc1cc(OCc2cccc(OC3CC3)c2)c2nn[nH]c2n1 [Example 6, 7-(3-Cyclopropoxybenzyloxy)-3H-[1,2,3]triazolo[4,5-b]pyridin-5-amine]
6 | 7.00 to 9.00 | 7.10 | – | Nc1cc(OCc2cccc(OCc3ccccc3)c2)c2nn[nH]c2n1 [Example 2, 7-(3-(Benzyloxy)benzyloxy)-3H-[1,2,3]triazolo[4,5-b]pyridin-5-amine]
